Laboratory results: patent US20240279202A1 (NURIX THERAPEUTICS, INC., priority 2021, published 2024)
Read-outs that look alike come from different tables or passages of the source.

Key:
ITK = biological target: T1, ITK (Homo sapiens, UniProt Q08881); assay: ITK degradation HiBiT assay; format: cell-based; parameters: expressed in transfected cells; host or cells: Molt4 (ATCC CRL-1552), monoclonal clone 1C10, engineered to carry the HiBiT tag; settings: 4 hrs; for DC50: C-terminal HiBiT-tagged Molt4 cells; for Dmax: MOLT-4, C-terminal HiBiT-tagged Molt4 cells
T1 sequence (Q08881 1-620): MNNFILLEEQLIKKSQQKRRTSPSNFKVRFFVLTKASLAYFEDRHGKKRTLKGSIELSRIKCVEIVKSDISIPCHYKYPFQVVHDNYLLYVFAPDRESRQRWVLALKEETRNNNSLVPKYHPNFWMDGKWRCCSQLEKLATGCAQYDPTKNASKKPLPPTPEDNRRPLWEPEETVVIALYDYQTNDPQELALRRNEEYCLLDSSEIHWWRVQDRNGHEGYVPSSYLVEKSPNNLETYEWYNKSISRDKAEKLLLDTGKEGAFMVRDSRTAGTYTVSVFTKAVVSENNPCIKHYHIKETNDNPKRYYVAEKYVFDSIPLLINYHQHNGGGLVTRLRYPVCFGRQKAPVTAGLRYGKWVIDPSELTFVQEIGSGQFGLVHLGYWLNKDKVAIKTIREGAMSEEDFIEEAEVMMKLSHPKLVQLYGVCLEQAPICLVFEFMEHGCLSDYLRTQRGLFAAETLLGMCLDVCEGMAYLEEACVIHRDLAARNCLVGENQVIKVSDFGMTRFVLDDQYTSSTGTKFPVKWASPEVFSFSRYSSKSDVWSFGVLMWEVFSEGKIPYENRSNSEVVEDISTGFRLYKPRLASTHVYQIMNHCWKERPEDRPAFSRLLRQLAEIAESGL
Procedure, shortened: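 C-terminal HiBiT-tagged Molt4 cells (clone 1C10) treated 4 h at 32° C with an 11-point, 5-fold compound dilution series (0.5% DMSO). HiBiT lytic detection with LgBiT then luminescence read; % ITK remaining versus concentration fit by four-parameter variable-slope model to give DC50 and Dmax.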

[1] = Mouse PK analysis (blood/plasma concentration after oral administration); format: in vivo; settings: mice; for AUC(0-t) / Cmax / Tmax / concentration at 1 h / concentration at 2 h / concentration at 6 h: mouse
Procedure, shortened: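 Mice were dosed by oral gavage at 90 mg/kg with blood sampled at 1, 2 and 6 h; a second study used oral dosing with plasma taken at 6 or 24 h. Plasma levels were measured by LC/MS/MS (acetonitrile precipitation, internal-standard curve, positive ESI MRM), and Cmax, Tmax and AUClast were derived by noncompartmental analysis.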

SMILES | DC50 (ITK) | Dmax (ITK) | detected in plasma through (FIG. 4B) ([1]; oral, plasma LC/MS/MS) | AUC(0-t) ([1]; oral, plasma) | Cmax ([1]; oral, plasma) | Tmax ([1]; oral, plasma) | concentration at 1 h ([1]; 90 mg/kg PO, blood, timepoint 1 h, read-out: Concentration (μM), mean calculated) | concentration at 2 h ([1]; 90 mg/kg PO, blood, timepoint 2 h, read-out: Concentration (μM), mean calculated) | concentration at 6 h ([1]; 90 mg/kg PO, blood, timepoint 6 h, read-out: Concentration (μM), mean calculated) | concentration at 1 h ([1]; plasma, oral, 90 mg/kg, 1 h, read-out: Cal. Conc. Total (μM) 1 h) | concentration at 2 h ([1]; plasma, oral, 90 mg/kg, 2 h, read-out: Cal. Conc. Total (μM) 2 h) | concentration at 6 h ([1]; plasma, oral, 90 mg/kg, 6 h, read-out: Cal. Conc. Total (μM) 6 h)
Cn1c(=O)n(C2CCC(=O)NC2=O)c2cccc(N3CCC(CN4CCC5(CC4)CCN(c4ccc6cc(-c7n[nH]c8c7C[C@@H]7C(F)(F)[C@]7(C)C8)[nH]c6c4)C5=O)CC3)c21 (stereo partly drawn) [Compound 16, 3-(4-(4-((2-(2-((4aS,5aR)-5,5-difluoro-5a-methyl-1,4,4a,5,5a,6-hexahydrocyclopropa[f]indazol-3-yl)-1H-indol-6-yl)-1-oxo-2,8-diazaspiro[4.5]decan-8-yl)methyl)piperidin-1-yl)-3-methyl-2-oxo-2,3-dihydro-1H-benzo[d]imidazol-1-yl)piperidine-2,6-dione] | 0.23 nM | 90% | 6 h | 1.53 µM·h | 585 nM | 6 h |  |  |  |  |  | 
C[C@@]12Cc3[nH]nc(C(=O)Nc4cnn(CC5CN(C(=O)C6CN(c7ccc8c(c7)C(=O)N(C7CCC(=O)NC7=O)C8=O)C6)C5)c4)c3C[C@@H]1C2(F)F (stereo partly drawn) [Compound 43, (4aS,5aR)-N-(1-((1-(1-(2-(2,6-dioxopiperidin-3-yl)-1,3-dioxoisoindolin-5-yl)azetidine-3-carbonyl)azetidin-3-yl)methyl)-1H-pyrazol-4-yl)-5,5-difluoro-5a-methyl-1,4,4a,5,5a,6-hexahydrocyclopropa[f]indazole-3-carboxamide] | 2.9 nM | 93% |  | 2.34 µM·h | 720 nM | 6 h |  |  |  |  |  | 
C[C@@H](C(=O)N(C)c1ccc2cc(-c3n[nH]c4c3CCC(C)(C)C4)[nH]c2c1)N1CCN(CC2CCN(c3cccc4c3n(C)c(=O)n4C3CCC(=O)NC3=O)CC2)CC1 (stereo partly drawn) [Compound 3, (2S)—N-(2-(6,6-dimethyl-4,5,6,7-tetrahydro-1H-indazol-3-yl)-1H-indol-6-yl)-2-(4-((1-(1-(2,6-dioxopiperidin-3-yl)-3-methyl-2-oxo-2,3-dihydro-1H-benzo[d]imidazol-4-yl)piperidin-4-yl)methyl)piperazin-1-yl)-N-methylpropanamide] | 0.29 nM | 76% |  | 1.99 µM·h | 471 nM | 4 h | 0.228 µM | 0.702 µM | 2.71 µM |  |  | 
C[C@@H](C(=O)N(C)c1ccc2cc(-c3n[nH]c4c3CCC(C)(C)C4)[nH]c2c1)N1CCN(C[C@H]2CCN(c3ccc4c(c3)n(C)c(=O)n4C3CCC(=O)NC3=O)C2)CC1 (stereo partly drawn) [Compound 5, (2S)—N-(2-(6,6-dimethyl-4,5,6,7-tetrahydro-1H-indazol-3-yl)-1H-indol-6-yl)-2-(4-(((3R)-1-(1-(2,6-dioxopiperidin-3-yl)-3-methyl-2-oxo-2,3-dihydro-1H-benzo[d]imidazol-5-yl)pyrrolidin-3-yl)methyl)piperazin-1-yl)-N-methylpropanamide] | 1.3 nM | 74% |  | 0.7 µM·h | 188 nM | 4 h |  |  |  |  |  | 
CN(C(=O)CCC1CCN(c2ccc3c(c2)C(=O)N(C2CCC(=O)NC2=O)C3=O)C1)c1ccc2cc(-c3n[nH]c4c3CCC(C)(C)C4)[nH]c2c1 (stereo not shown) [Compound 1, N-(2-(6,6-dimethyl-4,5,6,7-tetrahydro-1H-indazol-3-yl)-1H-indol-6-yl)-3-(1-(2-(2,6-dioxopiperidin-3-yl)-1,3-dioxoisoindolin-5-yl)pyrrolidin-3-yl)-N-methylpropanamide] | 10.4 nM | 88% |  |  |  |  |  |  |  | 1.6 µM | 1.7 µM | 0.7 µM
CN(c1ccc2cc(-c3n[nH]c4c3C[C@@H]3C(F)(F)[C@]3(C)C4)[nH]c2c1)C(=O)[C@H]1C[C@]2(CCN(c3ccc4c(c3)C(=O)N([C@H]3CCC(=O)NC3=O)C4=O)C2)C1 (racemic) [Compound 71b, (2s,4s)-N-[2-[(4aS,5aR)-5,5-difluoro-5a-methyl-1H,4H,4aH,6H-cyclopropa[f]indazol-3-yl]-1H-indol-6-yl]-6-[2-[(3RS)-2,6-dioxopiperidin-3-yl]-1,3-dioxoisoindol-5-yl]-N-methyl-6-azaspiro[3.4]octane-2-carboxamide] | 2 nM | 85% |  | 0.78 µM·h | 223 nM | 1.5 h |  |  |  |  |  | 
CN(C(=O)CCC1CCN(c2ccc(C(=O)NC3CCC(=O)NC3=O)nc2)C1)c1ccc2cc(-c3n[nH]c4c3C[C@@H]3C(F)(F)[C@]3(C)C4)[nH]c2c1 (stereo partly drawn) [Compound 69, 5-(3-(3-((2-((4aS,5aR)-5,5-difluoro-5a-methyl-1,4,4a,5,5a,6-hexahydrocyclopropa[f]indazol-3-yl)-1H-indol-6-yl)(methyl)amino)-3-oxopropyl)pyrrolidin-1-yl)-N-(2,6-dioxopiperidin-3-yl)picolinamide] |  | 42% |  | 1.26 µM·h | 283 nM | 3.5 h |  |  |  |  |  | 
C[C@@H](C(=O)N(C)c1ccc2cc(-c3n[nH]c4c3C[C@@H]3C(F)(F)[C@]3(C)C4)[nH]c2c1)N1CCN(C[C@H]2CCN(c3ccc4c(c3)C(=O)N(C3CCC(=O)NC3=O)C4=O)C2)CC1 (stereo partly drawn) [Compound 9, (2S)—N-(2-((4aS,5aR)-5,5-difluoro-5a-methyl-1,4,4a,5,5a,6-hexahydrocyclopropa[f]indazol-3-yl)-1H-indol-6-yl)-2-(4-(((3R)-1-(2-(2,6-dioxopiperidin-3-yl)-1,3-dioxoisoindolin-5-yl)pyrrolidin-3-yl)methyl)piperazin-1-yl)-N-methylpropanamide] | 0.21 nM | 85% |  | 0.154 µM·h | 46 nM | 6 h |  |  |  |  |  | 
CC1(C)CCc2c(-c3cc4ccc(N5CCC6(CCN(CC7CCN(c8ccc(C9CCC(=O)NC9=O)cn8)CC7)CC6)C5=O)cc4[nH]3)n[nH]c2C1 (stereo not shown) [Compound 22, 3-(6-(4-((2-(2-(6,6-dimethyl-4,5,6,7-tetrahydro-1H-indazol-3-yl)-1H-indol-6-yl)-1-oxo-2,8-diazaspiro[4.5]decan-8-yl)methyl)piperidin-1-yl)pyridin-3-yl)piperidine-2,6-dione] | 0.01 nM | 82% |  | 7.07 µM·h | 2430 nM | 1 h |  |  |  |  |  | 
Cn1c(=O)n(C2CCC(=O)NC2=O)c2cccc(N3CCC(CN4CCC5(CC4)CCN(c4ccc6cc(-c7n[nH]c8c7CCC(C)(C)C8)[nH]c6c4)C5=O)CC3)c21 (stereo not shown) [Compound 13, 3-(4-(4-((2-(2-(6,6-dimethyl-4,5,6,7-tetrahydro-1H-indazol-3-yl)-1H-indol-6-yl)-1-oxo-2,8-diazaspiro[4.5]decan-8-yl)methyl)piperidin-1-yl)-3-methyl-2-oxo-2,3-dihydro-1H-benzo[d]imidazol-1-yl)piperidine-2,6-dione] | 2.4 nM | 90% |  | 0.927 µM·h | 251 nM | 4 h |  |  |  |  |  | 
Cn1c(=O)n([C@@H]2CCC(=O)NC2=O)c2cccc(N3CCC(CN4CCN(C(=O)c5ccc6cc(-c7n[nH]c8c7CCC(C)(C)C8)[nH]c6c5)CC4)CC3)c21 [Compound 48, (R)-3-(4-(4-((4-(2-(6,6-dimethyl-4,5,6,7-tetrahydro-1H-indazol-3-yl)-1H-indole-6-carbonyl)piperazin-1-yl)methyl)piperidin-1-yl)-3-methyl-2-oxo-2,3-dihydro-1H-benzo[d]imidazol-1-yl)piperidine-2,6-dione] | 5.2 nM | 86% |  | 8.42 µM·h | 2440 nM | 6 h |  |  |  |  |  | 
